Results from patent US20070208085A1 (SOMANTA LIMITED, priority 2006, published 2007).
Like-named read-outs stand apart in the source and are kept apart here.

Assays:
786-0 = assay: NCI human cell line panel cytotoxicity; assay type: cell-based; conditions: Renal
Protocol: (§1) To identify the activity of the compound of formula IV in additional cell lines, an NCI human cell line panel was screened for sensitivity to the compound. Cytotoxicity was evaluated for chloroethylaminoanthraquinone compounds synthesized as described in EXAMPLE 1, using an in vitro cell based assay as described in Pors et al., Mol. Cancer Ther., 2:607-610 (2003).
(§2) Human tumor cell lines from the NCI human cell line panel (Table 2) were tested in the assay.
(§3) Growth inhibition was determined, and was expressed as the concentration (nM) required to inhibit cell growth by 50% (IG50). […] In particular, excellent activity was observed against CNS, colon, NSCLC and renal cancer cell lines. […] Standard methods were used for MTT results (Monks A et. al., J. Natl Cancer Inst. 1991 June 5;83(11):757-66).

A549/ATCC = assay: NCI human cell line panel cytotoxicity; assay type: cell-based; conditions: NSCLC
Protocol: as §1, §2, §3

ACHN = assay: NCI human cell line panel cytotoxicity; assay type: cell-based; conditions: Renal
Protocol: as §1, §2, §3

BT549 = assay: NCI human cell line panel cytotoxicity; assay type: cell-based; conditions: BT-549, Breast
Protocol: as §1, §2, §3

DU145 = assay: NCI human cell line panel cytotoxicity; assay type: cell-based; conditions: DU-145, Prostate
Protocol: as §1, §2, §3

EKVX = assay: NCI human cell line panel cytotoxicity; assay type: cell-based; conditions: NSCLC
Protocol: as §1, §2, §3

HCT-116 = assay: NCI human cell line panel cytotoxicity; assay type: cell-based; conditions: Colon
Protocol: as §1, §2, §3

HCT-15 = assay: NCI human cell line panel cytotoxicity; assay type: cell-based; conditions: Colon
Protocol: as §1, §2, §3

HS 578T = assay: NCI human cell line panel cytotoxicity; assay type: cell-based; conditions: Breast
Protocol: as §1, §2, §3

HT-29 = assay: NCI human cell line panel cytotoxicity; assay type: cell-based; conditions: Colon
Protocol: as §1, §2, §3

KM 12 = assay: NCI human cell line panel cytotoxicity; assay type: cell-based; conditions: KM12, Colon
Protocol: as §1, §2, §3

LOX IMVI = assay: NCI human cell line panel cytotoxicity; assay type: cell-based; conditions: Melanoma
Protocol: as §1, §2, §3

MCF7 = assay: NCI human cell line panel cytotoxicity; assay type: cell-based; conditions: Breast
Protocol: as §1, §2, §3

MDA-MB-231/ATCC = assay: NCI human cell line panel cytotoxicity; assay type: cell-based; conditions: Breast
Protocol: as §1, §2, §3

MDA-MB-435 = assay: NCI human cell line panel cytotoxicity; assay type: cell-based; conditions: Breast
Protocol: as §1, §2, §3

NCI-H226 = assay: NCI human cell line panel cytotoxicity; assay type: cell-based; conditions: NSCLC
Protocol: as §1, §2, §3

NCI-H322M = assay: NCI human cell line panel cytotoxicity; assay type: cell-based; conditions: NSCLC
Protocol: as §1, §2, §3

NCI-H460 = assay: NCI human cell line panel cytotoxicity; assay type: cell-based; conditions: NSCLC
Protocol: as §1, §2, §3

PC3 = assay: NCI human cell line panel cytotoxicity; assay type: cell-based; conditions: PC-3, Prostate
Protocol: as §1, §2, §3

RPMI 8226 = assay: NCI human cell line panel cytotoxicity; assay type: cell-based; conditions: Leuk
Protocol: as §1, §2, §3

SF 268 = assay: NCI human cell line panel cytotoxicity; assay type: cell-based; conditions: CNS
Protocol: as §1, §2, §3

SF 539 = assay: NCI human cell line panel cytotoxicity; assay type: cell-based; conditions: CNS
Protocol: as §1, §2, §3

SK MEL 5 = assay: NCI human cell line panel cytotoxicity; assay type: cell-based; conditions: Melanoma
Protocol: as §1, §2, §3

SN12C = assay: NCI human cell line panel cytotoxicity; assay type: cell-based; conditions: Renal
Protocol: as §1, §2, §3

TK10 = assay: NCI human cell line panel cytotoxicity; assay type: cell-based; conditions: TK-10, Renal
Protocol: as §1, §2, §3

U251 = assay: NCI human cell line panel cytotoxicity; assay type: cell-based; conditions: U-251, CNS
Protocol: as §1, §2, §3

UACC-257 = assay: NCI human cell line panel cytotoxicity; assay type: cell-based; conditions: Melanoma
Protocol: as §1, §2, §3

UACC-62 = assay: NCI human cell line panel cytotoxicity; assay type: cell-based; conditions: Melanoma
Protocol: as §1, §2, §3

NCI human cell lines = assay: NCI human cell line panel, mean over cell lines; assay type: cell-based; conditions: mean against the NCI human cell lines (28 tested)
Protocol: as §1, §2, §3

[1] = system: human osteosarcoma cell line (U-2 OS); assay: Cell cycle events by flow cytometry and timelapse, cyclin B1-GFP reporter; assay type: cell-based; conditions: U2-OS
Protocol: The U2 OS cells were stably transfected with a Green Fluorescent Protein tagged Cyclin B1 reporter and maintained at 37° C. and 5% CO2 in McCoys 5A modified medium (Sigma) supplemented with 2 mM glutamine, 100 units/ml penicillin, 100 μg/ml streptomycin, 10% fetal calf serum and 1000 μg/ml geneticin. Appropriate dilutions were added to the wells to obtain treatment regimes of 0, 10 and 100 nM of the experimental compound.
The cells were plated in a 6 well plate (density ˜15-20%). Each experiment consisted of the paired drug treatment at the appropriate dose added to the cells and the plate was placed on a stage of an inverted microscope in a sealed environment (37° C./humidified 5% CO2), and the entire apparatus was situated on a vibration-free table. Three fields were selected per well to triplicate the sampling for each experiment. Images at 10× magnification and were taken every 15 minutes over 3 days using a Cohu cooled CCD camera and the programme AQM Advance 6 to store the images. The images were viewed using the Metamorph programme.
Experimental data derived from the timelapse were analyzed by comparing the morphology of the cells and the relative growth rates per treatment regimen. This was achieved by counting the number of live cells per field every 12 hours (since a normal cell has a generation time of 24 hours) and plotting the data into relative growth curves. The initial rate of growth (between time points 0-12 and 12-24) was then calculated.
Samples by flow cytometry. U-2 OS cells were treated with the compound in a 6 well plate in an incubator over 2 days. Cells were then extracted from the plate, and Draq5 added to stain the DNA before they were analyzed using a Becton Dickinson FACS Vantage flow cytometer. The flow data was gated for intact cells, and the DRAQ5 levels (indicator of DNA content) were extracted.
DNA content and Cyclin B1 expression were measured using flow cytometry and a p53 functional human osteosarcoma cell line (U2-OS) as described above.

[2] = system: A2780 human ovarian carcinoma cell line; conditions: cited from earlier work
[3] = system: doxorubicin-resistant and cisplatin-resistant tumor cell lines; conditions: cited from earlier work

SMILES: CN(C)CCNc1ccc(NCCN(CCCl)CCCl)c2c1C(=O)c1c(O)ccc(O)c1C2=O [Compound IV]
- IC50 (786-0; read-out: IC50 nM): < 10 nM
- IC50 (786-0; read-out: IC50): < 10 nM
- IC50 (786-0; read-out: Log IC50 (converted)): ≤ 10 nM
- IC50 (A549/ATCC; read-out: IC50 nM): 27 nM
- IC50 (A549/ATCC; read-out: IC50): 26.9 nM
- IC50 (A549/ATCC; read-out: Log IC50 (converted)): 26.9 nM
- IC50 (ACHN; read-out: IC50 nM): < 10 nM
- IC50 (ACHN; read-out: IC50): < 10 nM
- IC50 (ACHN; read-out: Log IC50 (converted)): ≤ 10 nM
- IC50 (BT549; read-out: IC50 nM): 2040 nM
- IC50 (BT549; read-out: IC50): 2040 nM
- IC50 (BT549; read-out: Log IC50 (converted)): 2040 nM
- IC50 (DU145; read-out: IC50 nM): 50 nM
- IC50 (DU145; read-out: IC50): 50.1 nM
- IC50 (DU145; read-out: Log IC50 (converted)): 50.1 nM
- IC50 (EKVX; read-out: IC50 nM): 759 nM
- IC50 (EKVX; read-out: IC50): 759 nM
- IC50 (EKVX; read-out: Log IC50 (converted)): 759 nM
- IC50 (HCT-116; read-out: IC50 nM): < 10 nM
- IC50 (HCT-116; read-out: IC50): < 10 nM
- IC50 (HCT-116; read-out: Log IC50 (converted)): ≤ 10 nM
- IC50 (HCT-15; read-out: IC50 nM): < 10 nM
- IC50 (HCT-15; read-out: IC50): < 10 nM
- IC50 (HCT-15; read-out: Log IC50 (converted)): ≤ 10 nM
- IC50 (HS 578T; read-out: IC50 nM): 525 nM
- IC50 (HS 578T; read-out: IC50): 525 nM
- IC50 (HS 578T; read-out: Log IC50 (converted)): 525 nM
- IC50 (HT-29; read-out: IC50 nM): < 10 nM
- IC50 (HT-29; read-out: IC50): < 10 nM
- IC50 (HT-29; read-out: Log IC50 (converted)): ≤ 10 nM
- IC50 (KM 12; read-out: IC50 nM): 138 nM
- IC50 (KM 12; read-out: IC50): 138 nM
- IC50 (KM 12; read-out: Log IC50 (converted)): 138 nM
- IC50 (LOX IMVI; read-out: IC50 nM): < 10 nM
- IC50 (LOX IMVI; read-out: IC50): < 10 nM
- IC50 (LOX IMVI; read-out: Log IC50 (converted)): ≤ 10 nM
- IC50 (MCF7; read-out: IC50 nM): < 10 nM
- IC50 (MCF7; read-out: IC50): < 10 nM
- IC50 (MCF7; read-out: Log IC50 (converted)): ≤ 10 nM
- IC50 (MDA-MB-231/ATCC; read-out: IC50 nM): 100 nM
- IC50 (MDA-MB-231/ATCC; read-out: IC50): 100 nM
- IC50 (MDA-MB-231/ATCC; read-out: Log IC50 (converted)): 100 nM
- IC50 (MDA-MB-435; read-out: IC50 nM): 21 nM
- IC50 (MDA-MB-435; read-out: IC50): 20.9 nM
- IC50 (MDA-MB-435; read-out: Log IC50 (converted)): 20.9 nM
- IC50 (NCI-H226; read-out: IC50 nM): 54 nM
- IC50 (NCI-H226; read-out: IC50): 53.7 nM
- IC50 (NCI-H226; read-out: Log IC50 (converted)): 53.7 nM
- IC50 (NCI-H322M; read-out: IC50 nM): 295 nM
- IC50 (NCI-H322M; read-out: IC50): 295 nM
- IC50 (NCI-H322M; read-out: Log IC50 (converted)): 295 nM
- IC50 (NCI-H460; read-out: IC50 nM): < 10 nM
- IC50 (NCI-H460; read-out: IC50): < 10 nM
- IC50 (NCI-H460; read-out: Log IC50 (converted)): ≤ 10 nM
- IC50 (PC3; read-out: IC50 nM): 50 nM
- IC50 (PC3; read-out: IC50): 50.1 nM
- IC50 (PC3; read-out: Log IC50 (converted)): 50.1 nM
- IC50 (RPMI 8226; read-out: IC50 nM): < 10 nM
- IC50 (RPMI 8226; read-out: IC50): < 10 nM
- IC50 (RPMI 8226; read-out: Log IC50 (converted)): ≤ 10 nM
- IC50 (SF 268; read-out: IC50 nM): < 10 nM
- IC50 (SF 268; read-out: IC50): < 10 nM
- IC50 (SF 268; read-out: Log IC50 (converted)): ≤ 10 nM
- IC50 (SF 539; read-out: IC50 nM): < 10 nM
- IC50 (SF 539; read-out: IC50): < 10 nM
- IC50 (SF 539; read-out: Log IC50 (converted)): ≤ 10 nM
- IC50 (SK MEL 5; read-out: IC50 nM): 71 nM
- IC50 (SK MEL 5; read-out: IC50): 70.8 nM
- IC50 (SK MEL 5; read-out: Log IC50 (converted)): 70.8 nM
- IC50 (SN12C; read-out: IC50 nM): 27 nM
- IC50 (SN12C; read-out: IC50): 26.9 nM
- IC50 (SN12C; read-out: Log IC50 (converted)): 26.9 nM
- IC50 (TK10; read-out: IC50 nM): 407 nM
- IC50 (TK10; read-out: IC50): 407 nM
- IC50 (TK10; read-out: Log IC50 (converted)): 407 nM
- IC50 (U251; read-out: IC50 nM): 19 nM
- IC50 (U251; read-out: IC50): 19.1 nM
- IC50 (U251; read-out: Log IC50 (converted)): 19.1 nM
- IC50 (UACC-257; read-out: IC50 nM): 1860 nM
- IC50 (UACC-257; read-out: IC50): 1860 nM
- IC50 (UACC-257; read-out: Log IC50 (converted)): 1860 nM
- IC50 (UACC-62; read-out: IC50 nM): 219 nM
- IC50 (UACC-62; read-out: IC50): 219 nM
- IC50 (UACC-62; read-out: Log IC50 (converted)): 219 nM
- IC50 (NCI human cell lines): 49 nM
- G2 arrest [1]: limited expression of G2 arrest
- polyploidy on escape from G2 arrest (B1 cyclin tracking) [1]: forced some cells to enter polyploidy via an aberrant mitosis
- pan-cell cycle progression and mitotic commitment ([1]; compared to untreated cells): slowed pan-cell cycle progression and mitotic commitment
- induction of apoptosis ([1]; immediate (<24 h)): without any immediate (<24 h) induction of apoptosis
- cytotoxicity [2]: potent cytotoxicity
- cellular drug resistance ([3]; Pors et al., 2003): very low resistance
- cytotoxicity against resistant cell lines ([3]; doxorubicin-resistant and cisplatin-resistant tumor cell lines, in vitro): maintained potent cytotoxicity
- resistance relative to doxorubicin ([3]; fold less resistant, Pors et al., 2003): 250 fold
- resistance relative to the other chloroethylaminoanthraquinones tested ([3]; fold less, Pors et al., 2003): 20-150 fold
